The record followed here is patent US20230096028A1, “BICYCLIC HETEROCYCLYL COMPOUNDS AND USES THEREOF” (Revolution Medicines, Inc., priority 2019, published 2023).

Assay [1] has as its system PC-9 cells (EGFR Ex19Del). Description: Potency Assay: pERK (SOS1 pERK IC50 Assay, AlphaLISA SureFire Ultra p-ERK1/2). The following applies: Homo sapiens, read-out: SOS1 pERK IC50. It counts as cell-based. Put shortly:
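Cellular pERK1/2 by AlphaLISA SureFire Ultra after 1 h compound exposure (37° C., highest concentration 10 μM, 3-fold steps, duplicates) of EGFR Ex19Del PC-9 cells seeded the day before. A 4-parameter fit of signal versus log concentration gives IC50.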

The target in assay [2] is T1, SOS1 catalytic domain (residues 564-1049) (Homo sapiens, UniProt Q07889).
T1 sequence (Q07889 564-1049): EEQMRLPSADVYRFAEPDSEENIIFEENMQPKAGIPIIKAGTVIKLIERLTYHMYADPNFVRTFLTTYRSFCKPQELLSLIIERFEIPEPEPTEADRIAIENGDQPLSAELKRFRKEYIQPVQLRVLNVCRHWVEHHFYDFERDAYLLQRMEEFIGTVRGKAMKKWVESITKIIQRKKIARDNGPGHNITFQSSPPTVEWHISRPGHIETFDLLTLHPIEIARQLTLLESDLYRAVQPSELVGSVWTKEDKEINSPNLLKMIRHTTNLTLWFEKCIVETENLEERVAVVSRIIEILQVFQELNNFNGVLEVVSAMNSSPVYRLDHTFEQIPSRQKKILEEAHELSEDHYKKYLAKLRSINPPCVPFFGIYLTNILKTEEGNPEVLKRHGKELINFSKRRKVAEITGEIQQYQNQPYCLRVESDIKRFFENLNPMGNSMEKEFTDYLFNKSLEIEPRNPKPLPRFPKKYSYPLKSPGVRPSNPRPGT
Description: Potency Assay: binding affinity to SOS1 using Surface Plasmon Resonance (SPR). Set-up: SOS1 catalytic domain (residues 564-1049) immobilized on a sensor chip. Conditions: immobilized SOS1 catalytic domain (residues 564-1049), read-out: SOS1 SPR Equilibrium Kd. Put shortly: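 Kd was obtained by plotting binding response, taken just before association ended, versus compound concentration on a Biacore 8K. Compounds flowed at 50 μL/min over streptavidin-captured avi-SOS1 catalytic domain (~6000 RU), followed by buffer dissociation; HEPES 0.01 M/NaCl 0.15 M/0.05% P20 buffer, double-referenced.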

For assay [3], the target named is T1, SOS1 catalytic domain (residues 564-1049). The assay is described as follows: Mode of Action Assay: inhibition of SOS1 nucleotide exchange activity (SOS1 TR-FRET IC50 Assay).
[4] abbreviates: PC-9 cells (EGFR Ex19Del), 1 hour incubation, AlphaLISA p-ERK1/2.

Where two headings read alike, the source gives them in different places.

Usually IC50 stands for the midpoint of a concentration-inhibition curve. Broadly, the Kd is a measure of binding affinity in units of concentration. With `C[C@@H](Nc1nc(Cl)nc2c1CN(C(=O)N1CCOCC1)C2)c1cccc2c1OCC2(F)F` [Example 466, [2-chloro-4-[[(1R)-1-(3,3-difluoro-2H-benzofuran-7-yl)ethyl]amino]-5,7-dihydropyrrolo[3,4-d]pyrimidin-6-yl]-morpholino-methanone], the IC50 in assay [1] (setting [4]) and in assay [3] was under 1000 nM each time. Also, in assay [2], the Kd is under 400 nM.

In the case of `C[C@@H](Nc1nc(Cl)nc2c1CN(C(=O)N1C[C@H]3CN(C)C[C@H]3C1)C2)c1cccc(C(F)F)c1F` [Example 414], the IC50 in assay [1] (setting [4]) and in assay [3] was under 1000 nM in each case. For the same molecule, the Kd in assay [2] is under 400 nM.

Consider `Cc1nc2c(c(N[C@H](C)c3cc(N)cc(C(F)(F)F)c3)n1)CN(S(C)(=O)=O)C2` [Example 46, (R)—N-(1-(3-amino-5-(trifluoromethyl)phenyl)ethyl)-2-methyl-6-(methylsulfonyl)-6,7-dihydro-5H-pyrrolo[3,4-d]pyrimidin-4-amine], for which the IC50 in assay [1] (setting [4]) and in assay [3] was over 1000 nM each time. Further, in assay [2], the Kd is over 400 nM.

Consider `C[C@@H](Nc1nc(Cl)nc2c1CN(C(=O)[C@@H]1CNC[C@@H]1C)C2)c1cc(N)cc(C(F)(F)F)c1` [Example 264], for which the IC50 in assay [1] (setting [4]) is over 1000 nM; in assay [3] it was under 1000 nM. For the same molecule, in assay [2], the Kd is under 400 nM.

As for `C[C@@H](Nc1nc(Cl)nc2c1CN(C(=O)OC1CCOCC1)C2)c1cc(N)cc(C(F)(F)F)c1` [Example 115, oxan-4-yl 4-{[(1R)-1-[3-amino-5-(trifluoromethyl)phenyl]ethyl]amino}-2-chloro-5H,6H,7H-pyrrolo[3,4-d]pyrimidine-6-carboxylate], the IC50 is under 1000 nM in assay [1] (PC-9, 1 h) and over 1000 nM in assay [3]. In addition, the dissociation constant Kd in assay [2] is under 400 nM.

For `C[C@@H](Nc1nc(Cl)nc2c1CN(C(=O)C1CCN1)C2)c1cccc(C(F)F)c1F` (stereo partly drawn) [Example 286], the IC50 in assay [1] (setting [4]) and in assay [3] was under 1000 nM throughout. For the same molecule, the Kd in assay [2] was under 400 nM.

`C[C@@H](Nc1nc(Cl)nc2c1CN(C(=O)[C@H]1CCOC[C@H]1N)C2)c1cccc(C(F)F)c1F` [Example 306]: the IC50 in assay [1] (setting [4]) and in assay [3] was under 1000 nM throughout. Also, the equilibrium dissociation constant (Kd) in assay [2] is under 400 nM.

As to `C[C@@H](Nc1nc(Cl)nc2c1CN(C(=O)[C@H]1CNCCO1)C2)c1cccc(C(F)(F)F)c1` [Example 281], the IC50 in assay [1] (setting [4]) and in assay [3] was under 1000 nM in each case. The dissociation constant Kd in assay [2] was under 400 nM.

Take `COC1(C(=O)N2Cc3nc(Cl)nc(N[C@H](C)c4cccc(C(F)F)c4F)c3C2)COC1` [Example 489]: the IC50 in assay [1] (setting [4]) and in assay [3] was under 1000 nM each time. Besides, the dissociation constant (Kd) in assay [2] is under 400 nM.

Regarding `C[C@@H](Nc1nc(Cl)nc2c1CN(C(=O)[C@H]1COCCN1)C2)c1cccc(C(F)F)c1F` [Example 304], the concentration for half-maximal inhibition (IC50) in assay [1] (setting [4]) is over 1000 nM; in assay [3], under 1000 nM. In addition, the Kd in assay [2] is under 400 nM.

Consider `COC(C(=O)N1Cc2nc(Cl)nc(N[C@H](C)c3cc(N)cc(C(F)(F)F)c3)c2C1)C1CCOC1` (stereo partly drawn) [Example 259], for which the IC50 in assay [1] (setting [4]) and in assay [3] was under 1000 nM throughout. The Kd in assay [2] was under 400 nM.

As for `COC1(C(=O)N2Cc3nc(Cl)nc(N[C@H](C)c4cccc(C(F)F)c4F)c3C2)CN(C)C1` [Example 324], the IC50 in assay [1] (setting [4]) and in assay [3] was under 1000 nM throughout. Besides, the Kd in assay [2] is under 400 nM.

With `COC1(C(=O)N2Cc3nc(Cl)nc(N[C@H](C)c4cccc(C(F)(F)F)c4)c3C2)CNC1` [Example 316], the IC50 in assay [1] (setting [4]) and in assay [3] was under 1000 nM throughout. In assay [2], the Kd is under 400 nM.

With `C[C@@H](Nc1nc(Cl)nc2c1CN(C(=O)c1cccnn1)CC2)c1cc(N)cc(C(F)(F)F)c1` [Example 235], the IC50 in assay [1] (setting [4]) was over 1000 nM; in assay [3] it was under 1000 nM. Further, in assay [2], the Kd is over 400 nM.

Consider `C[C@@H](Nc1nc(Cl)nc2c1CN(C(=O)CC1CCN(C)C1)C2)c1cc(N)cc(C(F)(F)F)c1` (stereo partly drawn) [Example 257], for which the IC50 in assay [1] (setting [4]) was over 1000 nM; in assay [3], under 1000 nM. For the same molecule, the equilibrium dissociation constant (Kd) in assay [2] was under 400 nM.

Consider `C[C@@H]1OCC2(CCN(C(=O)N3Cc4nc(Cl)nc(N[C@H](C)c5cccc(C(F)F)c5F)c4C3)CC2)[C@@H]1N` [Example 424], for which the values for the IC50 in assay [1] (setting [4]) and in assay [3] were over 1000 nM and under 1000 nM, respectively. Further, the dissociation constant (Kd) in assay [2] is under 400 nM.

With `C[C@@H](Nc1nc(Cl)nc2c1CN(C(=O)N1C[C@H]3C[C@@H]1CN3C)C2)c1cccc(C(F)F)c1F` [Example 416], the IC50 in assay [1] (setting [4]) and in assay [3] was under 1000 nM each time. For the same molecule, in assay [2], the dissociation constant Kd is under 400 nM.

With `CC(=O)N1Cc2nc(C)nc(N[C@H](C)c3cc(N)cc(C(F)(F)F)c3)c2C1` [Example 120, 1-(4-{[(1R)-1-[3-amino-5-(trifluoromethyl)phenyl]ethyl]amino}-2-methyl-5H,6H,7H-pyrrolo[3,4-d]pyrimidin-6-yl)ethan-1-one], the IC50 in assay [1] (setting [4]) and in assay [3] was over 1000 nM in each case. Further, the dissociation constant (Kd) in assay [2] was over 400 nM.

In the case of `C[C@@H](Nc1nc(Cl)nc2c1CN(C(=O)N1CCC(O)CC1)C2)c1cccc(C(F)F)c1F` [Example 395], the half-inhibitory concentration (IC50) in assay [1] (setting [4]) and in assay [3] was under 1000 nM in each case. Besides, in assay [2], the Kd is under 400 nM.

As to `CC(Nc1nc(Cl)nc2c1CN(C(=O)N1CCOCC1)C2)c1cccc2c1OCCC2(F)F` (stereo not drawn) [Example 476, 2-chloro-N-[1-(4,4-difluoro-3,4-dihydro-2H-1-benzopyran-8-yl)ethyl]-6-(morpholine-4-carbonyl)-5H,6H,7H-pyrrolo[3,4-d]pyrimidin-4-amine], the IC50 was over 1000 nM in assay [1] (setting [4]) and under 1000 nM in assay [3]. The dissociation constant Kd in assay [2] was under 400 nM.

`COC1(C(=O)N2Cc3nc(Cl)nc(N[C@H](C)c4cccc(C(F)F)c4F)c3C2)CNC1` [Example 302]: the IC50 in assay [1] (setting [4]) and in assay [3] was under 1000 nM in each case. The dissociation constant Kd in assay [2] is under 400 nM.

For `C[C@@H](Nc1nc(Cl)nc2c1CN(S(=O)(=O)C1CC1)C2)c1cc(N)cc(C(F)(F)F)c1` [Example 52], the IC50 in assay [1] (setting [4]) and in assay [3] was under 1000 nM each time. The Kd in assay [2] is under 400 nM.

Turning to `C[C@@H](Nc1nc(Cl)nc2c1CN(C(=O)C1(C#N)CCOCC1)C2)c1cc(N)cc(C(F)(F)F)c1` [Example 255], the half-maximal inhibitory concentration (IC50) in assay [1] (setting [4]) and in assay [3] was under 1000 nM in each case. Further, in assay [2], the Kd is under 400 nM.

As to `C[C@@H](Nc1nc(Cl)nc2c1CN(C(=O)C1CCNCC1F)C2)c1cccc(C(F)F)c1F` (stereo partly drawn) [Example 305], the IC50 in assay [1] (setting [4]) is over 1000 nM; in assay [3] it was under 1000 nM. Moreover, the dissociation constant Kd in assay [2] was under 400 nM.

As for `CNCc1ccccc1-c1cnc(C(C)Nc2nc(Cl)nc3c2CN(C(=O)N2CCOCC2)C3)s1` (stereo not drawn) [Example 31], the IC50 in assay [1] (setting [4]) and in assay [3] was over 1000 nM in each case. Also, the Kd in assay [2] was under 400 nM.

On to `C[C@@H](Nc1nc(Cl)nc2c1CN(C(=O)c1ccc(-n3ccnc3)cn1)CC2)c1cc(N)cc(C(F)(F)F)c1` [Example 250], for which the IC50 in assay [1] (setting [4]) and in assay [3] was over 1000 nM throughout. The Kd in assay [2] was over 400 nM.

For the molecule `C[C@@H](Nc1nc(CN2CCOCC2)nc2c1CN(C(=O)N1CCOCC1)C2)c1cccc(C(F)F)c1F` [Example 539], the IC50 in assay [1] (setting [4]) is over 1000 nM; in assay [3] it was under 1000 nM. For the same molecule, in assay [2], the Kd was over 400 nM.

As for `C[C@@H](Nc1nc(Cl)nc2c1CN(S(=O)(=O)N1CCOCC1)CC2)c1cc(N)cc(C(F)(F)F)c1` [Example 29, N-[(1R)-1-[3-amino-5-(trifluoromethyl)phenyl]ethyl]-2-chloro-6-morpholinosulfonyl-7,8-dihydro-5H-pyrido[4,3-d]pyrimidin-4-amine], the IC50 in assay [1] (setting [4]) and in assay [3] was under 1000 nM in each case. Further, the equilibrium dissociation constant (Kd) in assay [2] was under 400 nM.

In the case of `C[C@@H](Nc1nc(Cl)nc2c1CN(C(=O)N1CCNc3ncccc31)C2)c1cccc(C(F)(F)F)c1` [Example 370], the IC50 in assay [1] (setting [4]) and in assay [3] was under 1000 nM throughout. Besides, the Kd in assay [2] was under 400 nM.

Take `C[C@@H](Nc1nc(Cl)nc2c1CN(C(=O)c1ccc(N3CCOCC3)cn1)CC2)c1cc(N)cc(C(F)(F)F)c1` [Example 254]: the concentration for half-maximal inhibition (IC50) in assay [1] (setting [4]) and in assay [3] was over 1000 nM in each case. Besides, in assay [2], the Kd was over 400 nM.

Consider `C[C@@H](Nc1nc(Cl)nc2c1CN(S(=O)(=O)N1CC3CCC(C1)O3)CC2)c1cc(N)cc(C(F)(F)F)c1` [Example 180], for which the IC50 in assay [1] (setting [4]) and in assay [3] was under 1000 nM in each case. Also, the Kd in assay [2] is under 400 nM.

With `C[C@@H](Nc1nc(Cl)nc2c1CN(S(=O)(=O)C1CCOCC1)CC2)c1cc(N)cc(C(F)(F)F)c1` [Example 455], the IC50 in assay [1] (setting [4]) and in assay [3] was under 1000 nM each time. In addition, the equilibrium dissociation constant (Kd) in assay [2] was under 400 nM.
